Measurements as given in patent publication US7691416B2, “Methods of treating vascular disease” (priority 2002, dated 2010).

Assays:
mouse SMC = assay: SMC proliferation, [3H]thymidine incorporation; assay type: cell-based
Text: (§1) Animals. Male (250-350 g) Brown Norway rats (RT1^n) were used as aortic graft donors and male (250-350 g) Lewis rats (RT11) as recipients. Dawley (400-450 g) rats were used in the balloon injury model. Adult male C57BL/6, C57/S129, p21^−/− and p53^−/− null mice were purchased from Jackson Laboratory (Bar Harbor, Me.). mkk3^(−/−) null mice were generated as described Lu et al. (EMBO. 18:1845-1857 (1999)). The inos^−/− and enos^−/− mice were bred at the University of Pittsburgh. Aortic transplant model. Aortic transplantation was performed as described in Shimizu et al. (Nat. Med. 7:738-741 (2001)). Briefly, 3 to 4 cm of descending aorta was harvested from the donor and implanted between the renal arteries and the aortic bifurcation of the recipient. Both edges of the native abdominal aorta were ligated. Balloon injury model. Balloon angioplasty was carried out as described in Murakami et al. (Atherosclerosis 157:361-368 (2001)). Briefly, a 2 Fr. arterial embolectomy catheter (Baxter, Chicago, Ill.) was inserted into the common carotid artery, and injury was created by inflating the balloon to 5 atmospheres of pressure for 5 minutes. The arteries were flushed and the external carotid artery was ligated, ensuring return of blood flow through the common and internal carotid arteries. Injury of the vessel wall and subsequent pathological analysis was made in a manner that was blinded to the treatment group. CO exposure. CO was delivered to animals as described in Otterbein et al. (Nat. Med. 6:422-428 (2000)). Graft donors and recipients were exposed to CO (250 ppm) for two days before transplantation and for 56 days immediately following transplantation. In the balloon injury model, rats received either no pretreatment or were exposed to CO (250 ppm) for one hour prior to injury. Following surgery rats were housed in room air for two weeks. Cells. Primary mouse and rat smooth muscle cells (SMC) were isolated and cultured as described in Laubach et al. (Proc Natl Acad Sci USA 92:10688-9 (1995)). Mouse SMC isolated from HO-1^−/− mice were obtained as described in Duckers et al. (Nat. Med. 7:693-698 (2001)). Cell treatment and reagents. Guanylate cyclase inhibitor 1H(1,2,4) oxadiazolo(4,3-a)quinoxalin-1 (ODQ; Calbiochem-Novabiochem, San Diego, Calif.; 10-100 μM) and p38 MAPK inhibitor pyridinyl imidazol SB203580 (Calbiochem; 5-20 μM) were dissolved in DMSO. The cGMP analogue 8-bromo-cGMP sodium salt (8-Br-cGMP; Sigma-Aldrich, St. Louis, Mo.; 10-100 μM) and the PKG inhibitor (10-100 μM; Alexis Biochemicals) were dissolved in water. Cell counts and [^3H] thymidine incorporation. Rat and mouse SMC were isolated and cultured as described in Peyton et al. (Blood 99:4443-4448 (2002)). Proliferation assays were carried out as described in Petkova et al. (J Biol. Chem. 276:7932-7936 (2001)). For [^3H] thymidine incorporation studies, cells were serum-starved overnight and then stimulated with 10% serum containing 5 μCi/ml [^3H] thymidine (New England Nuclear, Boston Mass.). [^3H]thymidine incorporation was measured by scintillation spectroscopy and presented as mean counts/min/well. Histomorphometric analysis. Aortic grafts and carotid arteries were harvested at 56 and 14 days respectively. Vessels were fixed, embedded, and serially sectioned (5μ) in toto. Every third slide was stained with Hematoxylin and Eosin (H&E) for histomorphometric analyses. In both models, one or two images per slide at a resolution of 1520×1080 pixels were captured at a magnification of 25× with a Zeiss microscope (Axioskop, Iowa City, Iowa), RT color SPOT (Diagnostic Instrument, Inc., Saint Joseph, Mich.) and Windows NT (Compaq Computer) using Adobe Photoshop version 5.5 software. Areas from eight to ten captured images were calculated using digital imaging software as number of pixels corresponding to those areas. Twenty-four to forty-eight sections from each group were statistically analyzed with SPSS software version 10. Immunostaining and cell population histomorphometric analysis. […]

p21Cip1 = assay: Western blot of p21Cip1 expression; assay type: cell-based, mouse
Text: as §1

p38 MAPK = assay: Western blot of phosphorylated p38 MAPK in SMC; assay type: cell-based, mouse
Text: as §1, with “The cGMP analogue 8-bromo-cGMP sodium salt (8-Br-cGMP; Sigma-Aldrich, St. Louis, Mo.; 10-100 μM) and the PKG inhibitor (10-100 μM; Alexis Biochemicals) were dissolved in water. Cell counts and [^3H] thymidine incorporation. Rat and mouse SMC were isolated and cultured as described in Peyton et al. (Blood 99:4443-4448 (2002)). Proliferation assays were carried out as described in Petkova et al. (J Biol. Chem. 276:7932-7936 (2001)). For [^3H] thymidine incorporation studies, cells were serum-starved overnight and then stimulated with 10% serum containing 5 μCi/ml [^3H] thymidine (New England Nuclear, Boston Mass.).” left out, “Histomorphometric analysis. Aortic grafts and carotid arteries were harvested at 56 and 14 days respectively. Vessels were fixed, embedded, and serially sectioned (5μ) in toto. Every third slide was stained with Hematoxylin and Eosin (H&E) for histomorphometric analyses. In both models, one or two images per slide at a resolution of 1520×1080 pixels were captured at a magnification of 25× with a Zeiss microscope (Axioskop, Iowa City, Iowa), RT color SPOT (Diagnostic Instrument, Inc., Saint Joseph, Mich.) and Windows NT (Compaq Computer) using Adobe Photoshop version 5.5 software.” left out, “10.” for “10. Immunostaining and cell population histomorphometric analysis.”

[1] = Nitric oxide exposure of rats before balloon angioplasty; assay type: in vivo, rat; settings: NO administered at 500 ppm, 1 hour
Text: (§2) Animals. Male (250-350 g) Brown Norway rats (RT1^n) were used as aortic graft donors and male (250-350 g) Lewis rats (RT11) as recipients. Dawley (400-450 g) rats were used in the balloon injury model. Adult male C57BL/6, C57/S129, p21^−/− and p53^−/− null mice were purchased from Jackson Laboratory (Bar Harbor, Me.). mkk3^(−/−) null mice were generated as described Lu et al. (EMBO. 18:1845-1857 (1999)). The inos^−/− and enos^−/− mice were bred at the University of Pittsburgh. Aortic transplant model. Aortic transplantation was performed as described in Shimizu et al. (Nat. Med. 7:738-741 (2001)). Briefly, 3 to 4 cm of descending aorta was harvested from the donor and implanted between the renal arteries and the aortic bifurcation of the recipient. Both edges of the native abdominal aorta were ligated. Balloon injury model. Balloon angioplasty was carried out as described in Murakami et al. (Atherosclerosis 157:361-368 (2001)). […] [^3H]thymidine incorporation was measured by scintillation spectroscopy and presented as mean counts/min/well. […] Areas from eight to ten captured images were calculated using digital imaging software as number of pixels corresponding to those areas. Twenty-four to forty-eight sections from each group were statistically analyzed with SPSS software version 10. […]

[2] = system: intimal hyperplasia after balloon injury of the carotid artery; assay: Balloon injury model of the carotid artery; assay type: in vivo, rat; settings: NO 250 ppm; one hour pre-treatment
Text: as §2

## O=c1onc2cnc3ccccc3n12 [ODQ, 1H(1,2,4) oxadiazolo(4,3-a)quinoxalin-1, reference compound]
Mouse SMC; CO 250 ppm plus ODQ
  Ability of CO to suppress SMC proliferation under guanylate cyclase inhibition: impaired
p21Cip1; CO plus ODQ
  Ability of CO to up-regulate p21Cip1 expression under guanylate cyclase inhibition: impaired
p38 MAPK; CO plus ODQ
  Activation of p38 MAPK by CO when cGMP generation is blocked: abolished

## Nc1nc2c(nc(Br)n2[C@@H]2O[C@@H]3COP(=O)([O-])O[C@H]3[C@H]2O)c(=O)[nH]1.[Na+] [8-Br-cGMP, 8-Bromoguanosine 3′-5′-cyclic monophosphate sodium salt, reference compound]
Mouse SMC; SMC derived from p21-/- mice
  Suppression of proliferation by the cGMP analogue: impaired
Mouse SMC; wild type SMC exposed to the cGMP analogue
  SMC proliferation: suppressed
p21Cip1; SMC exposed to the cGMP analogue, comparably to CO
  p21Cip1 expression: increased
p38 MAPK; SMC exposed to the cGMP analogue
  p38 MAPK activation: activated

## C[S+]([O-])c1ccc(-c2nc(-c3ccncc3)c(-c3ccc(F)cc3)[nH]2)cc1 (centres unmarked) [SB203580, reference compound]
Mouse SMC; 8Br-cGMP plus SB203580
  Anti-proliferative effect of 8Br-cGMP in presence of p38 MAPK inhibitor: abrogated
Mouse SMC; CO 250 ppm plus SB203580
  Anti-proliferative effect of CO in presence of p38 MAPK inhibitor: suppressed
Mouse SMC; SMC from p21-/- mice, CO 250 ppm plus SB203580
  Effects of CO on proliferation in presence of p38 MAPK inhibitor: did not modulate
p21Cip1; 8Br-cGMP plus SB203580
  Ability of 8Br-cGMP to up-regulate expression of p21Cip1 in presence of p38 MAPK inhibitor: suppressed
p21Cip1; CO 250 ppm plus SB203580
  Ability of CO to up-regulate expression of p21Cip1 in presence of p38 MAPK inhibitor: blocked

## [N]=O [NO, Nitric Oxide, reference compound]
[1]
  Lethality: lethal
[2]
  Intimal thickening triggered by balloon injury: did not modulate
